The record followed here is patent US20220056019A1, “FARNESOID X RECEPTOR AGONISTS AND USES THEREOF” (Metacrine, Inc., priority 2018, published 2022).

In this assay the target is T1, hFXR (Homo sapiens, UniProt Q96RI1).
T1 construct: expressed in transfected cells; host or cells: CV-1 cells
T1 sequence (Q96RI1 1-486): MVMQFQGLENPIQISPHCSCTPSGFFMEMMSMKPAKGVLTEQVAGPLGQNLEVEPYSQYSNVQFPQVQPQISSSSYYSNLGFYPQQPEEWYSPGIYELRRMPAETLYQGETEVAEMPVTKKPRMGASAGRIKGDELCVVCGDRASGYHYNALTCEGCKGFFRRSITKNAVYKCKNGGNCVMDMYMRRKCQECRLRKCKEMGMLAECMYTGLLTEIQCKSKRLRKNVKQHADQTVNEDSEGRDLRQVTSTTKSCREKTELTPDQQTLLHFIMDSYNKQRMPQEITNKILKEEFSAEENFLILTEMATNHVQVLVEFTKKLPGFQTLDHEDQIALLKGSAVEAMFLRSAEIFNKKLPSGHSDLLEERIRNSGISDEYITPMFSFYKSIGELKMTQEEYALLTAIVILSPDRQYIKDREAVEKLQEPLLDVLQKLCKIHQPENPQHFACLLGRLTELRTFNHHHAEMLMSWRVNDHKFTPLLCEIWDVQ
T1 sequence (P19793 1-462 partner): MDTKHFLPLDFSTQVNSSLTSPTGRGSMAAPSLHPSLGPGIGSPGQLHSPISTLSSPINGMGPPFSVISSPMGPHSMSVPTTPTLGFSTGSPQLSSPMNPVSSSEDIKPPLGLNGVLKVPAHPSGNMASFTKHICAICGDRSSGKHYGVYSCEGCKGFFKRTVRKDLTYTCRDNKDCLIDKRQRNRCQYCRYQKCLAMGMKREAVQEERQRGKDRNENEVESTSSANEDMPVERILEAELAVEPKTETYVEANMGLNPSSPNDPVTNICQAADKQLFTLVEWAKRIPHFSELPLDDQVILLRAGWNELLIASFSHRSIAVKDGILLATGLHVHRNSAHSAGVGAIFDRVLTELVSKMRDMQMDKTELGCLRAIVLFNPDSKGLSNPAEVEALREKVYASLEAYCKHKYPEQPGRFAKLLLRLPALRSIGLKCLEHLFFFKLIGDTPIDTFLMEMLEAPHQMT
Nature of the assay: In Vitro FXR Assay (TK): TK-ECRE-luc reporter in transfected CV-1 cells. It counts as cell-based. To be noted: 18 hrs incubation, luminescence. In a few lines: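 CV-1 cells in DMEM with 10% charcoal-stripped FBS were transiently co-transfected with hFXR, hRXR, TK-ECRE-luc reporter and pCMX-YFP plasmids over 18 h at 37 °C. Compounds serially diluted in DMSO were added for 18 h; cells were then lysed and luciferase luminescence measured.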
For orientation: EC50 means the concentration needed to bring the measured effect to its halfway point. Read a high EC50 as weaker potency. As for `COc1ccc([C@H]2CC[C@H](CN(c3cc(-c4cnn(C(C)C)c4)ccn3)C(=O)[C@H]3CC[C@H](OC(=O)N4CC(S(C)(=O)=O)C4)CC3)CC2)cc1C` [Compound 2.12, trans-4-((4-(1-Isopropyl-1H-pyrazol-4-yl)pyridin-2-yl)(((trans)-4-(4-methoxy-3-methylphenyl)cyclohexyl)methyl)carbamoyl) cyclohexyl 3-(methylsulfonyl)azetidine-1-carboxylate], the EC50 was at most 50 nM.

As for `COc1ccc([C@H]2CC[C@H](CN(c3cc(-c4cnn(C(C)C)c4)ccn3)C(=O)[C@H]3CC[C@H](OC(=O)NC[C@H](F)CF)CC3)CC2)cc1C` [Compound 2.33, trans-4-((4-(1-Isopropyl-1H-pyrazol-4-yl)pyridin-2-yl)(((trans)-4-(4-methoxy-3-methylphenyl)cyclohexyl)methyl)carbamoyl) cyclohexyl((S)-2,3-difluoropropyl) carbamate], the EC50 was at most 50 nM.

As for `COc1ccc(C23CCC(CN(c4cc(-c5cnn(C(C)C)c5)ncn4)C(=O)[C@H]4CC[C@H](OC(=O)N5CC(CO)C5)CC4)(CC2)CC3)cc1C` [Compound 23.20, 4-((6-(1-Isopropyl-1H-pyrazol-4-yl)pyrimidin-4-yl)((4-(4-methoxy-3-methylphenyl)bi-cyclo[2.2.2]octan-1-yl)methyl)carbamoyl)(trans-cyclohexyl) 3-(hydroxymethyl)azetidine-1-carboxylate], the concentration for a half-maximal effect (EC50) was at most 50 nM.

Regarding `COc1ccc(C23CCC(CN(c4cc(-n5nnc(C(C)C)n5)ccn4)C(=O)[C@H]4CC[C@H](OC(=O)N5CC(O)C5)CC4)(CC2)CC3)cc1C` [Compound 26.17, 4-((4-(5-Isopropyl-2H-tetrazol-2-yl)pyridin-2-yl)((4-(4-methoxy-3-methylphenyl)bicyclo[2.2.2]octan-1-yl)methyl)carbamoyl)cyclohexyl trans-3-hydroxyazetidine-1-carboxylate], the 50% effective concentration (EC50) is 1000 to 10000 nM.

As to `COc1ccc(C23CCC(CN(c4cc(-c5cnn(C(C)C)c5)ccn4)C(=O)[C@H]4CC[C@H](OC(=O)N5CC(S(C)(=O)=O)C5)CC4)(CC2)CC3)cc1C` [Compound 4.11, 4-((4-(1-Isopropyl-1H-pyrazol-4-yl)pyridin-2-yl)((4-(4-methoxy-3-methylphenyl)bicyclo [2.2.2]octan-1-yl)methyl)carbamoyl)cyclohexyl 3-(methylsulfonyl) azetidine-trans-1-carboxylate], the EC50 is at most 50 nM.

In turn, `CC(C)c1ccc(C23CCC(CN(c4cncc(-c5cnn(C(C)C)c5)n4)C(=O)[C@H]4CC[C@H](OC(=O)N5CC(O)C5)CC4)(CC2)CC3)cc1` [Compound 4.63, 4-((6-(1-Isopropyl-1H-pyrazol-4-yl)pyrazin-2-yl) ((4-(4-isopropylphenyl)bicyclo[2.2.2]octan-1-yl)methyl)carbamoyl)(trans-cyclohexyl) 3-hydroxyazetidine-1-carboxylate] returned an EC50 of at most 50 nM.

Turning to `COc1ccc([C@H]2CC[C@H](CN(c3cccc(-c4coc(C5CC5)n4)c3)C(=O)[C@H]3CC[C@H](CO)CC3)CC2)nc1C` [Compound 20, trans-N-(3-(2-Cyclopropyloxazol-4-yl)phenyl)-4-(hydroxymethyl)-N-((trans-4-(5-methoxy-6-methylpyridin-2-yl)cyclohexyl)methyl)cyclohexanecar-boxamide], the EC50 was at most 50 nM.

Turning to `COC(=O)N[C@H]1CC[C@H](C(=O)N(C[C@H]2CC[C@H](c3ccc(OC)c(C)c3)CC2)c2cccc(-c3cnn(C(C)C)c3)c2)CC1` [Compound 6, Methyl (trans-4-((3-(1-isopropyl-1H-pyrazol-4-yl)phenyl)((trans-4-(4-methoxy-3-methylphenyl)cyclohexyl)methyl)carbamoyl)cyclohexyl)carbamate], the EC50 was at most 50 nM.

In turn, `COc1ccc([C@H]2CC[C@H](CN(c3cccc(-c4cnn(C(C)C)c4)c3)C(=O)[C@H]3CC[C@H](CNC(=O)OCCO)CC3)CC2)cc1C` [Compound 12.06, 2-Hydroxyethyl (((trans)-4-((3-(1-isopropyl-1H-pyrazol-4-yl)phenyl)(((trans)-4-(4-methoxy-3-methylphenyl)cyclohexyl)methyl)carbamoyl)cyclohexyl)methyl)car-bamate] returned an EC50 of at most 50 nM.

On to `COc1ccc([C@H]2CC[C@H](CN(c3cc(-c4cnc(C5CC5)s4)ccn3)C(=O)[C@H]3CC[C@H](OC(=O)NCC(C)(C)O)CC3)CC2)cc1C` [Compound 2, trans-4-((4-(2-Cyclopropylthiazol-5-yl)pyridin-2-yl)(((trans)-4-(4-methoxy-3-methylphenyl)cyclohexyl)methyl)carbamoyl)cyclohexyl (2-hydroxy-2-methylpropyl)carbamate], for which the EC50 was at most 50 nM.

As for `COc1ccc(C23CCC(CN(c4cc(-c5cnn(C6(C)CCC6)c5)ccn4)C(=O)[C@H]4CC[C@H](OC(=O)NCCO)CC4)(CC2)CC3)cc1C` [Compound 25.16, 4-(((4-(4-Methoxy-3-methylphenyl)bicyclo[2.2.2]octan-1-yl)methyl)(4-(1-(1-methylcyclobutyl)-1H-pyrazol-4-yl)pyridin-2-yl)carbamoyl)(trans-cyclohexyl)(2-hydroxyethyl)carbamate], the concentration for a half-maximal effect (EC50) is at most 50 nM.

As for `COc1ccc(C23CCC(CN(c4cc(-c5cnn(C(C)C)c5)ccn4)C(=O)[C@H]4CC[C@H](OC(=O)N5CC(CCO)C5)CC4)(CC2)CC3)cc1C` [Compound 4.43, 4-((4-(1-Isopropyl-1H-pyrazol-4-yl)pyridin-2-yl) ((4-(4-methoxy-3-methylphenyl)bicyclo [2.2.2]octan-1-yl)methyl)carbamoyl)cyclohexyl trans-3-(2-hydroxyethyl) azetidine-1-carboxylate], the concentration for a half-maximal effect (EC50) was at most 50 nM.

`COc1ccc([C@H]2CC[C@H](CN(c3cccc(-c4cnn(C(C)C)c4)c3)C(=O)[C@H]3CC[C@H](OCCCO)CC3)CC2)cc1C` [Compound 16, trans-4-(3-Hydroxypropoxy)-N-(3-(1-isopropyl-1H-pyrazol-4-yl)phenyl)-N-((trans-4-(4-methoxy-3-methylphenyl)cyclohexyl)methyl)cyclohexanecarboxamide]: the EC50 was at most 50 nM.

For the compound `COc1ccc([C@H]2CC[C@H](CN(c3cc(-c4cnc(C(C)C)s4)ccn3)C(=O)[C@H]3CC[C@H](OC(=O)NC(C)C)CC3)CC2)cc1C` [Compound 2.47, trans-4-((4-(2-Isopropylthiazol-5-yl)pyridin-2-yl)((trans-4-(4-methoxy-3-methylphenyl)cyclohexyl)methyl)carbamoyl)cyclohexyl isopropylcarbamate], the EC50 was at most 50 nM.

`COc1ccc([C@H]2CC[C@H](CN(c3cccc(-c4cnn(C(C)C)c4)c3)C(=O)[C@H]3CC[C@H](NC(=O)CCCO)CC3)CC2)cc1C` [Compound 14, trans-4-(4-Hydroxybutanamido)-N-(3-(1-isopropyl-1H-pyrazol-4-yl)phenyl)-N-((trans-4-(4-methoxy-3-methylphenyl)cyclohexyl)methyl)cyclohexanecarboxamide] gave a concentration for a half-maximal effect (EC50) of 50 to 1000 nM.

The compound `COc1ccc(C23CCC(CN(c4cc(-c5nnc(C(C)C)o5)ccn4)C(=O)[C@H]4CC[C@H](OC(=O)N5CC(O)C5)CC4)(CC2)CC3)cc1C` [Compound 26.12, 4-((4-(5-Isopropyl-1,3,4-oxadiazol-2-yl)pyridin-2-yl)((4-(4-methoxy-3-methylphenyl)bicyclo[2.2.2]octan-1-yl)methyl)carbamoyl)cyclohexyl trans-3-hydroxyazetidine-1-carboxylate] yielded a 50% effective concentration (EC50) of 50 to 1000 nM.

`COc1ccc([C@H]2CC[C@H](CN(c3cccc(-c4coc(C5CC5)n4)c3)C(=O)[C@H]3CC[C@H](C(C)(C)O)CC3)CC2)nc1C` [Compound 19, trans-N-(3-(2-Cyclopropyloxazol-4-yl)phenyl)-4-(2-hydroxypropan-2-yl)-N-((trans-4-(5-methoxy-6-methylpyridin-2-yl)cyclohexyl)methyl)cyclohexanecar-boxamide] registered an EC50 of at most 50 nM.

`CCOC1CN(C(=O)O[C@H]2CC[C@H](C(=O)N(CC34CCC(c5ccc(OC)c(C)c5)(CC3)CC4)c3cc(-c4cnn(C(C)C)c4)ccn3)CC2)C1` [Compound 4.48, 4-((4-(1-Isopropyl-1H-pyrazol-4-yl)pyridin-2-yl) ((4-(4-methoxy-3-methylphenyl)bicyclo [2.2.2]octan-1-yl)methyl)carbamoyl)(trans-cyclohexyl) 3-ethoxyazetidine-1-carboxylate] gave an EC50 of at most 50 nM.

For the compound `COc1ccc(C23CCC(CN(c4cc(-c5cnn(C(C)C)c5)ccn4)C(=O)[C@H]4CC[C@H](NC(=O)OC5COC5)CC4)(CC2)CC3)cc1C` [Compound 7.02, (trans)-Oxetan-3-yl (4-((4-(1-isopropyl-1H-pyrazol-4-yl)pyridin-2-yl)((4-(4-methoxy-3-methylphenyl)bicyclo[2.2.2]octan-1-yl)methyl)carbamoyl)cyclohexyl) carbamate], the EC50 is at most 50 nM.
